From the supplement of paper PMC12592484

What follows are compounds tested on 22Rv1 (assay: drug sensitivity score (DSS2, normalised partial AUC of dose-response, 72 h CellTiter-Glo viability) (DSS (dimensionless)); higher = more sensitive (stronger growth inhibition / cytotoxicity); extreme values may be limits of the assay).
In short: (§1)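 Viability of low-passage primary prostate cancer-associated fibroblasts, PF179T, WPMY-1, LNCaP and 22Rv1 cells was read by CellTiter-Glo 2.0 luminescence 72 h after seeding onto compounds pre-dispensed in 384-well plates at five doses over a 10,000-fold range. Readings were scaled between vehicle and positive-control wells. Sensitivity is reported as a drug sensitivity score from BREEZE, namely a partial area under the fitted logistic curve divided by the log of its upper asymptote, where higher means more sensitive.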

| SMILES | drug sensitivity score |
| --- | --- |
| Nc1cc(COc2c(Cl)cc(C[C@H](N)C(=O)O)cc2Cl)c2oc(-c3ccccc3)nc2c1 [JPH203] (tested concentration range 0.5-5000 nM) | 0 |
| CC(C)NC(=O)COc1cccc(-c2nc(Nc3ccc4[nH]ncc4c3)c3ccccc3n2)c1 [KD025] (tested concentration range 0.5-5000 nM) | 1 |
| CC(C)[C@@H](CS(=O)(=O)C(C)C)N1C(=O)[C@@](C)(CC(=O)O)C[C@H](c2cccc(Cl)c2)[C@H]1c1ccc(Cl)cc1 [KRT-232] (tested concentration range 1-10000 nM) | 10 |
| CS(=O)(=O)CCNCc1ccc(-c2ccc3ncnc(Nc4ccc(OCc5cccc(F)c5)c(Cl)c4)c3c2)o1 [Lapatinib] (tested concentration range 0.1-1000 nM) | 0 |
| O=C(Nc1cnn2ccc(N3CCC[C@@H]3c3cc(F)ccc3F)nc12)N1CC[C@H](O)C1 [Larotrectinib] (tested concentration range 0.1-1000 nM) | 0 |
| Oc1ccc2c(c1)CC[C@H](c1ccccc1)[C@@H]2c1ccc(OCCN2CCCC2)cc1 [Lasofoxifene] (tested concentration range 0.1-1000 nM) | 0 |
| Nc1cccc2c1CN(C1CCC(=O)NC1=O)C2=O (stereo unspecified) [Lenalidomide] (tested concentration range 10-100000 nM) | 0 |
| COc1cc2nccc(Oc3ccc(NC(=O)NC4CC4)c(Cl)c3)c2cc1C(N)=O [Lenvatinib] (tested concentration range 0.2-2500 nM) | 0 |
| N#Cc1ccc(C(c2ccc(C#N)cc2)n2cncn2)cc1 [Letrozole] (tested concentration range 1-10000 nM) | 0 |
| O=C1CCc2c(Oc3ccc4c(c3)[C@@H]3[C@H](O4)[C@H]3c3nc4cc(C(F)(F)F)ccc4[nH]3)ccnc2N1 [Lifirafenib] (tested concentration range 1-10000 nM) | 6.3 |
| C[C@]1(O)C[C@@H](c2nc(-c3ccc4ccc(-c5ccccc5)nc4c3)c3c(N)nccn32)C1 [Linsitinib] (tested concentration range 1-10000 nM) | 1.3 |
| Nc1nc(OCc2cc(Br)cs2)c2[nH]cnc2n1 [Lomeguatrib] (tested concentration range 1-10000 nM) | 0 |
| NC(=O)N1CCC(CC(=O)N2CCC([C@H]3c4ncc(Br)cc4CCc4cc(Cl)cc(Br)c43)CC2)CC1 [Lonafarnib] (tested concentration range 5-50000 nM) | 18.6 |
| C[C@H]1Oc2cc(cnc2N)-c2c(nn(C)c2C#N)CN(C)C(=O)c2ccc(F)cc21 [Lorlatinib] (tested concentration range 0.1-1000 nM) | 0.3 |
| Cc1c(F)cc(C(=O)NC2CC2)cc1-c1ccc(C(=O)NCC(C)(C)C)cn1 [Losmapimod] (tested concentration range 1-10000 nM) | 0 |
| CC[C@H](C)C(=O)O[C@H]1C[C@@H](C)C=C2C=C[C@H](C)[C@H](CC[C@@H]3C[C@@H](O)CC(=O)O3)[C@H]21 [Lovastatin] (tested concentration range 1-10000 nM) | 1 |
| CNC(=O)c1cccc2cc(Oc3ccnc4cc(OCC5(N)CC5)c(OC)cc34)ccc12 [Lucitanib] (tested concentration range 1-10000 nM) | 1.8 |
| O=C(O)CC[C@H]1CC[C@@](c2cc(F)ccc2F)(S(=O)(=O)c2ccc(Cl)cc2)CC1 [MK-0752] (tested concentration range 0.1-1000 nM) | 0 |
| NC1(c2ccc(-c3nc4ccn5c(=O)[nH]nc5c4cc3-c3ccccc3)cc2)CCC1 [MK-2206] (tested concentration range 0.1-1000 nM) | 5.8 |
| O=C(c1cccc(Cl)c1F)N1CCN(Cc2cccc(Nc3nccs3)n2)CC1 [MK-8745] (tested concentration range 1-10000 nM) | 4 |
| O=C(Nc1cccc(NC(=O)c2cccc(O)c2O)c1)c1cccc(O)c1O [MST-312] (tested concentration range 1-10000 nM) | 10.3 |
| CNC(=O)[C@@H](NC(=O)[C@H](CC(C)C)[C@H](O)C(=O)NO)C(C)(C)C [Marimastat] (tested concentration range 1-10000 nM) | 0 |
| Cc1ccc(NC(=O)c2ccc(CN3CCN(C)CC3)cc2)cc1Nc1nc(-c2cccnc2)cs1 [Masitinib] (tested concentration range 1-10000 nM) | 5.3 |
| CCN(CC)CCCC(C)Nc1c2ccc(Cl)cc2nc2ccc(OC)cc12 (stereo unspecified) [Mepacrine] (tested concentration range 5-50000 nM) | 17.3 |
| S=c1[nH]cnc2nc[nH]c12 [Mercaptopurine] (tested concentration range 1-10000 nM) | 2.7 |
| Cc1ccc(C(=O)Nc2ccc(Oc3cc4cnn(C)c4cc3-c3cn[nH]c3)c(F)c2)c(=O)n1-c1ccc(F)cc1 [Merestinib] (tested concentration range 0.1-1000 nM) | 0 |

What follows are compounds tested on CAF#1 (primary prostate cancer-associated fibroblasts of myCAF-like type) in the same assay as above.
In short: as §1

| SMILES | drug sensitivity score |
| --- | --- |
| Nc1cc(COc2c(Cl)cc(C[C@H](N)C(=O)O)cc2Cl)c2oc(-c3ccccc3)nc2c1 [JPH203] (tested concentration range 0.5-5000 nM) | 0.1 |
| CC(C)NC(=O)COc1cccc(-c2nc(Nc3ccc4[nH]ncc4c3)c3ccccc3n2)c1 [KD025] (tested concentration range 0.5-5000 nM) | 0 |
| CC(C)[C@@H](CS(=O)(=O)C(C)C)N1C(=O)[C@@](C)(CC(=O)O)C[C@H](c2cccc(Cl)c2)[C@H]1c1ccc(Cl)cc1 [KRT-232] (tested concentration range 1-10000 nM) | 13.7 |
| CS(=O)(=O)CCNCc1ccc(-c2ccc3ncnc(Nc4ccc(OCc5cccc(F)c5)c(Cl)c4)c3c2)o1 [Lapatinib] (tested concentration range 0.1-1000 nM) | 0 |
| O=C(Nc1cnn2ccc(N3CCC[C@@H]3c3cc(F)ccc3F)nc12)N1CC[C@H](O)C1 [Larotrectinib] (tested concentration range 0.1-1000 nM) | 0 |
| Oc1ccc2c(c1)CC[C@H](c1ccccc1)[C@@H]2c1ccc(OCCN2CCCC2)cc1 [Lasofoxifene] (tested concentration range 0.1-1000 nM) | 0 |
| Nc1cccc2c1CN(C1CCC(=O)NC1=O)C2=O (stereo unspecified) [Lenalidomide] (tested concentration range 10-100000 nM) | 1.4 |
| COc1cc2nccc(Oc3ccc(NC(=O)NC4CC4)c(Cl)c3)c2cc1C(N)=O [Lenvatinib] (tested concentration range 0.2-2500 nM) | 2.1 |
| N#Cc1ccc(C(c2ccc(C#N)cc2)n2cncn2)cc1 [Letrozole] (tested concentration range 1-10000 nM) | 0 |
| O=C1CCc2c(Oc3ccc4c(c3)[C@@H]3[C@H](O4)[C@H]3c3nc4cc(C(F)(F)F)ccc4[nH]3)ccnc2N1 [Lifirafenib] (tested concentration range 1-10000 nM) | 3.4 |
| C[C@]1(O)C[C@@H](c2nc(-c3ccc4ccc(-c5ccccc5)nc4c3)c3c(N)nccn32)C1 [Linsitinib] (tested concentration range 1-10000 nM) | 1.5 |
| Nc1nc(OCc2cc(Br)cs2)c2[nH]cnc2n1 [Lomeguatrib] (tested concentration range 1-10000 nM) | 0 |
| NC(=O)N1CCC(CC(=O)N2CCC([C@H]3c4ncc(Br)cc4CCc4cc(Cl)cc(Br)c43)CC2)CC1 [Lonafarnib] (tested concentration range 5-50000 nM) | 8.2 |
| C[C@H]1Oc2cc(cnc2N)-c2c(nn(C)c2C#N)CN(C)C(=O)c2ccc(F)cc21 [Lorlatinib] (tested concentration range 0.1-1000 nM) | 1.9 |
| Cc1c(F)cc(C(=O)NC2CC2)cc1-c1ccc(C(=O)NCC(C)(C)C)cn1 [Losmapimod] (tested concentration range 1-10000 nM) | 0 |
| CC[C@H](C)C(=O)O[C@H]1C[C@@H](C)C=C2C=C[C@H](C)[C@H](CC[C@@H]3C[C@@H](O)CC(=O)O3)[C@H]21 [Lovastatin] (tested concentration range 1-10000 nM) | 2.8 |
| CNC(=O)c1cccc2cc(Oc3ccnc4cc(OCC5(N)CC5)c(OC)cc34)ccc12 [Lucitanib] (tested concentration range 1-10000 nM) | 6 |
| O=C(O)CC[C@H]1CC[C@@](c2cc(F)ccc2F)(S(=O)(=O)c2ccc(Cl)cc2)CC1 [MK-0752] (tested concentration range 0.1-1000 nM) | 0 |
| NC1(c2ccc(-c3nc4ccn5c(=O)[nH]nc5c4cc3-c3ccccc3)cc2)CCC1 [MK-2206] (tested concentration range 0.1-1000 nM) | 2.7 |
| O=C(c1cccc(Cl)c1F)N1CCN(Cc2cccc(Nc3nccs3)n2)CC1 [MK-8745] (tested concentration range 1-10000 nM) | 2.6 |
| O=C(Nc1cccc(NC(=O)c2cccc(O)c2O)c1)c1cccc(O)c1O [MST-312] (tested concentration range 1-10000 nM) | 12.8 |
| CNC(=O)[C@@H](NC(=O)[C@H](CC(C)C)[C@H](O)C(=O)NO)C(C)(C)C [Marimastat] (tested concentration range 1-10000 nM) | 0 |
| Cc1ccc(NC(=O)c2ccc(CN3CCN(C)CC3)cc2)cc1Nc1nc(-c2cccnc2)cs1 [Masitinib] (tested concentration range 1-10000 nM) | 4.1 |
| CCN(CC)CCCC(C)Nc1c2ccc(Cl)cc2nc2ccc(OC)cc12 (stereo unspecified) [Mepacrine] (tested concentration range 5-50000 nM) | 9.1 |
| S=c1[nH]cnc2nc[nH]c12 [Mercaptopurine] (tested concentration range 1-10000 nM) | 0 |
| Cc1ccc(C(=O)Nc2ccc(Oc3cc4cnn(C)c4cc3-c3cn[nH]c3)c(F)c2)c(=O)n1-c1ccc(F)cc1 [Merestinib] (tested concentration range 0.1-1000 nM) | 3 |

The compounds below were run on CAF#5 (primary prostate cancer-associated fibroblasts of myCAF-like type) in the same assay as above.
In short: as §1

| SMILES | drug sensitivity score |
| --- | --- |
| Nc1cc(COc2c(Cl)cc(C[C@H](N)C(=O)O)cc2Cl)c2oc(-c3ccccc3)nc2c1 [JPH203] (tested concentration range 0.5-5000 nM) | 1 |
| CC(C)NC(=O)COc1cccc(-c2nc(Nc3ccc4[nH]ncc4c3)c3ccccc3n2)c1 [KD025] (tested concentration range 0.5-5000 nM) | 1.1 |
| CC(C)[C@@H](CS(=O)(=O)C(C)C)N1C(=O)[C@@](C)(CC(=O)O)C[C@H](c2cccc(Cl)c2)[C@H]1c1ccc(Cl)cc1 [KRT-232] (tested concentration range 1-10000 nM) | 10.9 |
| CS(=O)(=O)CCNCc1ccc(-c2ccc3ncnc(Nc4ccc(OCc5cccc(F)c5)c(Cl)c4)c3c2)o1 [Lapatinib] (tested concentration range 0.1-1000 nM) | 0 |
| O=C(Nc1cnn2ccc(N3CCC[C@@H]3c3cc(F)ccc3F)nc12)N1CC[C@H](O)C1 [Larotrectinib] (tested concentration range 0.1-1000 nM) | 0 |
| Oc1ccc2c(c1)CC[C@H](c1ccccc1)[C@@H]2c1ccc(OCCN2CCCC2)cc1 [Lasofoxifene] (tested concentration range 0.1-1000 nM) | 1.3 |
| Nc1cccc2c1CN(C1CCC(=O)NC1=O)C2=O (stereo unspecified) [Lenalidomide] (tested concentration range 10-100000 nM) | 1.1 |
| COc1cc2nccc(Oc3ccc(NC(=O)NC4CC4)c(Cl)c3)c2cc1C(N)=O [Lenvatinib] (tested concentration range 0.2-2500 nM) | 0.3 |
| N#Cc1ccc(C(c2ccc(C#N)cc2)n2cncn2)cc1 [Letrozole] (tested concentration range 1-10000 nM) | 0 |
| O=C1CCc2c(Oc3ccc4c(c3)[C@@H]3[C@H](O4)[C@H]3c3nc4cc(C(F)(F)F)ccc4[nH]3)ccnc2N1 [Lifirafenib] (tested concentration range 1-10000 nM) | 2.2 |
| C[C@]1(O)C[C@@H](c2nc(-c3ccc4ccc(-c5ccccc5)nc4c3)c3c(N)nccn32)C1 [Linsitinib] (tested concentration range 1-10000 nM) | 3.2 |
| Nc1nc(OCc2cc(Br)cs2)c2[nH]cnc2n1 [Lomeguatrib] (tested concentration range 1-10000 nM) | 0.2 |
| NC(=O)N1CCC(CC(=O)N2CCC([C@H]3c4ncc(Br)cc4CCc4cc(Cl)cc(Br)c43)CC2)CC1 [Lonafarnib] (tested concentration range 5-50000 nM) | 7.6 |
| C[C@H]1Oc2cc(cnc2N)-c2c(nn(C)c2C#N)CN(C)C(=O)c2ccc(F)cc21 [Lorlatinib] (tested concentration range 0.1-1000 nM) | 3.3 |
| Cc1c(F)cc(C(=O)NC2CC2)cc1-c1ccc(C(=O)NCC(C)(C)C)cn1 [Losmapimod] (tested concentration range 1-10000 nM) | 0 |
| CC[C@H](C)C(=O)O[C@H]1C[C@@H](C)C=C2C=C[C@H](C)[C@H](CC[C@@H]3C[C@@H](O)CC(=O)O3)[C@H]21 [Lovastatin] (tested concentration range 1-10000 nM) | 3.7 |
| CNC(=O)c1cccc2cc(Oc3ccnc4cc(OCC5(N)CC5)c(OC)cc34)ccc12 [Lucitanib] (tested concentration range 1-10000 nM) | 3.9 |
| O=C(O)CC[C@H]1CC[C@@](c2cc(F)ccc2F)(S(=O)(=O)c2ccc(Cl)cc2)CC1 [MK-0752] (tested concentration range 0.1-1000 nM) | 0 |
| NC1(c2ccc(-c3nc4ccn5c(=O)[nH]nc5c4cc3-c3ccccc3)cc2)CCC1 [MK-2206] (tested concentration range 0.1-1000 nM) | 3 |
